Values of other authors in patent US8222453B2, “Benzamide factor VIIa inhibitors useful as anticoagulants” (Bristol-Myers Squibb Company, priority 2006, dated 2012).

Experiments:
[1] = tested on: systemic thrombin generation; conditions: patients undergoing coronary angioplasty
[2] = tested on: deep vein thrombosis; conditions: patients undergoing total knee replacement

In the case of “recombinant nematode anticoagulant protein c2 [rNAPc2]”, the systemic thrombin generation [1] is listed as “reduces systemic thrombin generation” and the deep vein thrombosis [2] is listed as “prevents deep vein thrombosis”.
